According to article PMC11750622, “Structural insights into translocation and tailored synthesis of hyaluronan” (Nature Structural & Molecular Biology, 2024):

Legend:
CvHAS [1] = details: acceptor (primer) site; UDP-GlcA and Mn2+ present; nanodisc with Nb881 and Nb872; catalytically inactive mutant
CvHAS [2] = molecular target: T1, CvHAS (Paramecium bursaria Chlorella virus CZ-2, UniProt Z9D3Q5ADJ6); test: cryo-EM structure, […] Å; type: binding; details: formed in situ from GlcNAc and UDP-GlcA; Mn2+; nanodisc with Nb881 and Nb872; also with UDP in 8SNE (3.0 Å)
T1 construct: pET28a-CvHAS, Ni-NTA purified, expressed in E. coli C43; MSP1E3D1 nanodiscs with nanobodies for cryo-EM, IMVs for activity
T1 sequence (Z9D3Q5ADJ6 1-562): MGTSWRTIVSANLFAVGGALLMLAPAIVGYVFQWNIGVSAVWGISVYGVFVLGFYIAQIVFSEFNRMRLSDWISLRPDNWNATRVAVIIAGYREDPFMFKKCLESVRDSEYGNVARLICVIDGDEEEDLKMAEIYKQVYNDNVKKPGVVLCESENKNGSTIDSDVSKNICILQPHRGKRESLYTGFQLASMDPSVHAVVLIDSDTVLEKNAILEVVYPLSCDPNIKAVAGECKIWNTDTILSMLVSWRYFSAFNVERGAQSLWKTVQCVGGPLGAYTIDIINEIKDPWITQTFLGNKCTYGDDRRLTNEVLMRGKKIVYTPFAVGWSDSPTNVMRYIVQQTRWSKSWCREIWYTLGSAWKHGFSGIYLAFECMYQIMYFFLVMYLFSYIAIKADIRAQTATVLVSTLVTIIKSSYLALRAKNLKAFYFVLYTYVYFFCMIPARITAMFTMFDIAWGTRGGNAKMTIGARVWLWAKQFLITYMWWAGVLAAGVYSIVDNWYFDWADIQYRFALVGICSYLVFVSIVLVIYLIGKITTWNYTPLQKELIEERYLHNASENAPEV

XlHAS1 = molecular target: T2, XlHAS1 (Xenopus laevis, UniProt P13563); test: cryo-EM structure, […] Å; type: binding; details: Mg2+; Fab complex in GDN; gating loop inserted; active site
T2 construct: gene has1; full-length, N-terminal 12xHis tag, expressed in Sf9 cells, purified in GDN detergent, monomer
T2 sequence (P13563 1-588): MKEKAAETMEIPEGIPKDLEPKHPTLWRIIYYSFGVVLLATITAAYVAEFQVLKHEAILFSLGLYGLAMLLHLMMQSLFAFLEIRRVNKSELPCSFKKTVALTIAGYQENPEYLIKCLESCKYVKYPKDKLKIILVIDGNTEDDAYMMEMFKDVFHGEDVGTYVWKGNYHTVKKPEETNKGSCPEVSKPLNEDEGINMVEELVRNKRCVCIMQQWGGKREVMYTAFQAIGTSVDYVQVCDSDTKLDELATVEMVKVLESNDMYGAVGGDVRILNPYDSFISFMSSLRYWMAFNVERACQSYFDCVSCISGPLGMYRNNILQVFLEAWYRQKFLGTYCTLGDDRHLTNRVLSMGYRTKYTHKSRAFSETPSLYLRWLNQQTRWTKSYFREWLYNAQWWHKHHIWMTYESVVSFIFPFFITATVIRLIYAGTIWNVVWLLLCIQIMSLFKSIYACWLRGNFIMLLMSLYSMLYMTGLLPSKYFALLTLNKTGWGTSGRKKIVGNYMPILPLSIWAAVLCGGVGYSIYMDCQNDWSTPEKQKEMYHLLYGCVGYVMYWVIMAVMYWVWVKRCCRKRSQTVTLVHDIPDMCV

CvHAS [3] = molecular target: T1, CvHAS; test: cryo-EM structure, […] Å; type: binding; details: formed in situ from UDP-GlcNAc and UDP-GlcA; Mn2+; nanodisc with Nb886 and Nb872; minor UDP-GlcA state not excluded
[4] = molecular target: T3, Xenopus laevis HAS isoform 1 (Xenopus laevis, UniProt P13563); test: cryo-EM structure; GDN-solubilised XlHAS1 mixed with Fab at a 1:4 molar ratio, overnight at 4 °C, SEC on Superose 6 in 0.01% GDN; apo, HA-bound and UDP-bound samples; details: both partners purified
T3 construct: also called XlHAS1; DG42

CC(=O)N[C@H]1C(O)O[C@H](CO)[C@@H](O)[C@@H]1O (some centres unmarked) [GlcNAc]
cryo-EM structure, 3.2 Å (CvHAS [1]): the GlcNAc primer is well resolved and occupies the same acceptor position

CC(=O)N[C@H]1C(O)O[C@H](CO)[C@@H](O)[C@@H]1O[C@@H]1O[C@H](C(=O)O)[C@@H](O)[C@H](O)[C@H]1O (some centres unmarked) [HA disaccharide]
cryo-EM structure, 3.3 Å (CvHAS [2]): resolves a GlcNAc at the acceptor position that is elongated by a single sugar unit

O=c1ccn([C@@H]2O[C@H](COP(=O)(O)OP(=O)(O)O)[C@@H](O)[C@H]2O)c(=O)[nH]1 [UDP]
cryo-EM structure, 3.2 Å (XlHAS1): UDP is coordinated by conserved motifs of the GT domain | cryo-EM structure, 3.0 Å (CvHAS [3]): exposure of WT CvHAS to both of its substrates resulted in a UDP–HA disaccharide-bound conformation

B1: noninhibitory antibody Fab fragment against XlHAS1 (Fab, V domains shown)
VH: EVQLVESGGGLVQPGGSLRLSCAASGFNVSSYYIHWVRQAPGKGLEWVASISSSSGSTSYADSVKGRFTISADTSKNTAYLQMNSLRAEDTAVYYCARSGYYWGPYFGGFDYWGQGTLVTVSS
VL: DIQMTQSPSSLSASVGDRVTITCRASQSVSSAVAWYQQKPGKAPKLLIYSASSLYSGVPSRFSGSRSGTDFTLTISSLQPEDFATYYCQQSSSSLITFGQGTKVEIK
notes: source: selected from Fab phage library E on XlHAS1 nanodiscs
binding result [4]: binds
